# Results published in EPA's ToxValDB 9.5 (doi:10.2903/j.efsa.2007.121r).
# Legend:
# Canidae = conditions: chronic; duration: 2 years; oral; diet; Dog Other; body weight
# Apis mellifera = conditions: acute; duration: 48 hours; oral; unspecified; mortality
# Bibionidae = conditions: chronic/long-term; duration: 28 days
# Coturnix coturnix = conditions: acute; oral; mortality
# Daphnia magna = conditions: chronic/long-term; duration: 21 days; reproduction
# Lepomis macrochirus = conditions: acute; duration: 96 hours; mortality
# Oncorhynchus mykiss = conditions: chronic/long-term; duration: 91 days; mortality
# Tagia sp. = conditions: acute; duration: 14 days; mortality
# Aphidius rhopalosiphi = assay: LR50; higher = less toxic; conditions: not reported; mortality
# [1] = reproduction developmental, organ weight
SMILES,NOAEL (Canidae),"NOAEL (Rattus norvegicus; developmental, development)",NOAEL (Rattus norvegicus; [1]),LD50 (Apis mellifera),NOEC (Bibionidae),LD50 (Coturnix coturnix),NOEC (Daphnia magna),LC50 (Lepomis macrochirus),NOEC (Oncorhynchus mykiss),"LD50 (Rattus norvegicus; acute, oral, mortality)",LC50 (Tagia sp.),LR50 (Aphidius rhopalosiphi)
CCOC(=O)C(C)Oc1ccc(Oc2nc3ccc(Cl)cc3o2)cc1 (stereo not given) [Fenoxaprop-ethyl],1 mg/kg-day,10 mg/kg-day,1.4 mg/kg-day,–,–,–,–,–,–,–,–,–
CCOC(=O)[C@@H](C)Oc1ccc(Oc2nc3ccc(Cl)cc3o2)cc1 [Fenoxaprop-P-ethyl],1 mg/kg-day,10 mg/kg-day,1.4 mg/kg-day,> 199 µg/piece,0.2 mg/L,2000 mg/kg-day,0.22 mg/L,0.19 mg/L,0.036 mg/L,> 3150 mg/kg-day,> 1000 mg/kg,46.4 g/ha
